The record followed here is patent US20130029909A1, “TREATMENT OF CANCER” (priority 2009, published 2013).

Read-outs that look alike come from different tables or passages of the source.

In data set [1] the test system is H1299 cells. Description: H1299 human NSCLC xenograft model in nu/nu mice. The conditions noted are these: for median tumor volume (MTV) of survivors: D74, gemcitabine 120 mg/kg (five TFS), docetaxel 30 mg/kg (two D74 survivors); for tumor-free survival (TFS): 74 days post first treatment, CRLX101 10 mg/kg qwk×3, gemcitabine 120 mg/kg q3d×4, topotecan 12 mg/kg q4d×3. (Xenograft models place foreign cells or tissue in a host animal.)
Procedure: (§1) Animals were randomly divided into seven groups and treatment was started on day-15 post implantation, when the mean tumor volume was approximately 115 mm^3.
(§2) Body weight was measured daily on Days 1-5, then twice weekly until the completion of the study. Tumor volume was measured twice weekly and each animal was euthanized when the calculated tumor volume reached the 2000 mm^3 endpoint, or on day-88 post implantation, whichever came first.

The test system of data set [2] is H1299 cells. The conditions noted are these: mouse, in vivo.
Procedure: as §1, §2
Data set [3] concerns human ovarian carcinoma A2780 cells. The conditions noted are these: 72 h, MTS.
Procedure: The human ovarian carcinoma A2780 cells were obtained from the American Type Culture Collection. […] The medium was replaced with fresh medium containing the test compound at concentrations ranging from 0.01 nmol/L to 1 μmol/L. Triplicate wells per plate were treated at each concentration. Controls were vehicle-treated cells and medium only blank. […] MTS assay reagent was prepared by diluting CellTiter 96 AQueous One Solution (Promega) 5-fold into PBS/glucose (4.5 g/L). Cell culture medium was aspirated and 100 μL of MTS reagent were added to each well. Plates were incubated at 37° C. for 1 h. The plates were shaken for 5 min and the absorbance was measured at 485 nm using a [sequence]uor Plus plate reader (Tecan). The percentage of cell survival was calculated relative to untreated cells, and IC50s were estimated from the graphs of log dose (nmol/L) versus % cell survival (GraphPad Prizm).

Consider `CC(=O)O[C@@]12CO[C@@H]1C[C@H](O)[C@@]1(C)C(=O)[C@H](O)C3=C(C)[C@@H](OC(=O)[C@H](O)[C@@H](NC(=O)OC(C)(C)C)c4ccccc4)C[C@@](O)([C@@H](OC(=O)c4ccccc4)[C@H]21)C3(C)C` [Docetaxel, docetaxel], for which the “median tumor volume (MTV) of survivors” value in data set [1] came out at 302 mm3. Further, the “group mean body weight loss” value in data set [1] (docetaxel 30 mg/kg on D21) is given as 9.3%. The compound further registered a survival in data set [1] (docetaxel 30 mg/kg qwk×3, D74, no TFS) of 20%. The “BW Nadir (lowest group mean body weight, as % change from Day 1)” value in data set [1] (same regimens as E168, '—' indicates that no decrease in mean body weight was observed) is reported as −9.3%.

For the compound `C#Cc1cccc(Nc2ncnc3cc(OCCOC)c(OCCOC)cc23)c1` [Erlotinib, erlotinib], in data set [2], the “BW Nadir (lowest group mean body weight, as % change from Day 1)” value is on record as −2.9%.

As to `Nc1ccn([C@@H]2O[C@H](CO)[C@@H](O)C2(F)F)c(=O)n1` [Gemcitabine, gemcitabine], the “BW Nadir (lowest group mean body weight, as % change from Day 1)” value in data set [2] is −2.3%. In addition, in data set [1], the “tumor-free survival (TFS)” value turned out to be 50% and the “median tumor volume (MTV) of survivors” value was determined as 0 mm3.

The IC50 is the concentration needed to halve the response being measured. As to `CCc1c2c(nc3ccc(O)cc13)-c1cc3c(c(=O)n1C2)COC(=O)[C@]3(O)CC` [SN-38, 20(S)-7-ethyl-10-hydroxycamptothecin], 2.44 nM corresponded to half-maximal inhibition in data set [3] (IC50).

As for `CC[C@@]1(O)C(=O)OCc2c1cc1n(c2=O)Cc2cc3c(CN(C)C)c(O)ccc3nc2-1` [Topotecan, topotecan], the “BW Nadir (lowest group mean body weight, as % change from Day 1)” value in data set [2] was −0.6%. The “tumor-free survival (TFS)” value in data set [1] was 10%.
